Results as given in patent US20170015555A1, “LONG-TERM PRESERVATION AND NOVEL APPLICATION OF CHLOROUS ACID AQUEOUS SOLUTION FORMULATION” (priority 2013, published 2017).

Tested on: Microbes of the genus Salmonella: Salmonella Enteritidis IF03313
Assay type: cell-based
Details: stored at 25° C. Day 7; 1000 ppm available chlorine
Description: 1) Chlorous acid aqueous solution formulation (see Example 1: Table 11) Treatment sheet (material: 100% cotton): (about 27×40 cm) *Impregnated at a ratio of weight of treatment sheet (g): amount of liquid (ml)=1:3 2) Imitation vomit Miso solution: adjusted to pH of 2 with hydrochloric acid 3) Test Microbes that were Used E. coli: Escherichia coli IF03927 Staphylococcus aureus: Staphylococcus aureus IF0 12732 Thermoduric Microbes (Bacillus cereus): Bacillus cereus NBRC15305 Microbes of the genus Salmonella: Salmonella Enteritidis IF03313 Enterohemorrhagic Escherichia coli O157: Escherichia coli O157 Enterohemorrhagic Escherichia coli O111: Escherichia coli O111 Enterohemorrhagic Escherichia coli O26: Escherichia coli O26
(1) Imitation vomit was spread in an area about the size of an A4 sheet. (2) 5 dry sheets were laid thereon. (3) An agent solution was poured on the dry sheets to wipe off the imitation vomit. (4) A cotton swab was soaked with sterile saline. A portion where imitation vomit was spread was scrubbed with the cotton swab to collect microbes remaining on the floor. After suspending in saline, the solution was spread on a petri dish and cultured. The number of each of the microbes was measured. (5) Test operations 3 and 4 were repeated a total of 7 times (repeated until the imitation vomit could be removed completely).

[Na] [Sodium]
<10: Number of Times Wiped 1 Time (remaining microbes) | Number of Times Wiped 2 Times (remaining microbes) | Number of Times Wiped 3 Times (remaining microbes)
